What follows are compounds tested against Urease (Canavalia ensiformis, UniProt P07374) (assay: Inhibition of jack bean urease).
Chain of Urease (P07374 whole entry): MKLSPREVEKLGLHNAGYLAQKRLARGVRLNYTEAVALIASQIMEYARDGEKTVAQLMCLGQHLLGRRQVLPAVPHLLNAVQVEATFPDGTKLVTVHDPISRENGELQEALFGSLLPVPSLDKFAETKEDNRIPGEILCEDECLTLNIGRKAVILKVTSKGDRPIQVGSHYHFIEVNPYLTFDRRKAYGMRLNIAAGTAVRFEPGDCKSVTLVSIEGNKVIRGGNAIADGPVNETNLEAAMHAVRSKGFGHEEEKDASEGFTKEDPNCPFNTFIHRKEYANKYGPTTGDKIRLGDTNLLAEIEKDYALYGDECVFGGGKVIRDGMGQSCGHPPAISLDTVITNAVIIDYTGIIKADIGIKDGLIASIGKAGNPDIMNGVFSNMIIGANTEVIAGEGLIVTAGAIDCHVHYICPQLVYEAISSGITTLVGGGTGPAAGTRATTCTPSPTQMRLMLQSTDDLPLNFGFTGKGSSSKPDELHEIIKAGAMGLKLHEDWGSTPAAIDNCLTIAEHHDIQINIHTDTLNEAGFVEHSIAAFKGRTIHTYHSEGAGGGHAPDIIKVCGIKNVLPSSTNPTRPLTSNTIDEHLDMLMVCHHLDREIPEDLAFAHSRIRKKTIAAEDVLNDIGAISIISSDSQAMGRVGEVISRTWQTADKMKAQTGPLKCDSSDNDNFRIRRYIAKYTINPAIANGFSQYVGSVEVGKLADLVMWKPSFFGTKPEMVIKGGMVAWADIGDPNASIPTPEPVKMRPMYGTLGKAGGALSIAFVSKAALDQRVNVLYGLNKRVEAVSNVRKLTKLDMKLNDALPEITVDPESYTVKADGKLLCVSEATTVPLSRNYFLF
Work on COc1cc(C(c2c(O)oc3ccccc3c2=O)c2c(O)oc3ccccc3c2=O)cc(OC)c1OC yielded an IC50 of 83.2 µM. CC(C)c1ccc(C(c2c(O)oc3ccccc3c2=O)c2c(O)oc3ccccc3c2=O)cc1 showed an IC50 of 83.2 µM. For COc1ccc(C(c2c(O)c3ccccc3oc2=O)c2c(O)c3ccccc3oc2=O)cc1, the IC50 was 60.3 µM. O=c1oc2ccccc2c(O)c1C(c1c(O)c2ccccc2oc1=O)c1c[nH]c2ccccc12 was tested, and the IC50 was 61.7 µM. With CCCCCC(c1c(O)c2ccccc2oc1=O)c1c(O)c2ccccc2oc1=O the IC50 was 87.1 µM. For O=c1oc2ccccc2c(O)c1C(c1ccncc1)c1c(O)c2ccccc2oc1=O, the IC50 was 58.9 µM. Work on O=c1oc2ccccc2c(O)c1C(/C=C/c1ccccc1)c1c(O)c2ccccc2oc1=O yielded an IC50 of 60.3 µM. O=c1oc2ccccc2c(O)c1C(c1cccnc1)c1c(O)c2ccccc2oc1=O was tested, and the IC50 was 35.5 µM. In the case of O=c1oc2ccccc2c(O)c1C(c1ccccc1Cl)c1c(O)c2ccccc2oc1=O, the IC50 is reported as 85.1 µM. For CC(c1ccccc1)C(c1c(O)c2ccccc2oc1=O)c1c(O)c2ccccc2oc1=O (stereo not drawn), the IC50 was 52.5 µM. With CCOc1cc(C(c2c(O)c3ccccc3oc2=O)c2c(O)c3ccccc3oc2=O)ccc1O the IC50 was 91.2 µM. In the case of O=c1oc2ccccc2c(O)c1C(c1ccc[nH]1)c1c(O)c2ccccc2oc1=O, the IC50 is reported as 46.8 µM. Compound CCCCC(c1c(O)c2ccccc2oc1=O)c1c(O)c2ccccc2oc1=O has an IC50 of 64.6 µM. O=c1oc2ccccc2c(O)c1C(CCc1ccccc1)c1c(O)c2ccccc2oc1=O was tested, and the IC50 was 67.6 µM. O=c1c(C(c2ccc(O)cc2)c2c(O)oc3ccccc3c2=O)c(O)oc2ccccc12 showed an IC50 of 74.1 µM. With COc1cccc(C(c2c(O)c3ccccc3oc2=O)c2c(O)c3ccccc3oc2=O)c1 the IC50 was 56.2 µM. Work on COc1ccccc1C(c1c(O)c2ccccc2oc1=O)c1c(O)c2ccccc2oc1=O yielded an IC50 of 83.2 µM. CC(c1c(O)c2ccccc2oc1=O)c1c(O)c2ccccc2oc1=O was tested, and the IC50 was 63.1 µM. With CCCC(c1c(O)c2ccccc2oc1=O)c1c(O)c2ccccc2oc1=O the IC50 was 67.6 µM. With O=c1oc2ccccc2c(O)c1C(c1cccc(O)c1)c1c(O)c2ccccc2oc1=O the IC50 was 72.4 µM. O=c1oc2ccccc2c(O)c1C(c1cccc([N+](=O)[O-])c1)c1c(O)c2ccccc2oc1=O gave an IC50 of 81.3 µM. Work on C/C=C/C(c1c(O)c2ccccc2oc1=O)c1c(O)c2ccccc2oc1=O yielded an IC50 of 43.7 µM. Work on O=c1oc2ccccc2c(O)c1C(c1ccccc1Br)c1c(O)c2ccccc2oc1=O yielded an IC50 of 74.1 µM. In the case of COc1ccc(C(c2c(O)c3ccccc3oc2=O)c2c(O)c3ccccc3oc2=O)cc1OC, the IC50 is reported as 79.4 µM. Work on O=c1oc2ccccc2c(O)c1C(c1cccc(Cl)c1)c1c(O)c2ccccc2oc1=O yielded an IC50 of 74.1 µM. Nc1cccc(C(c2c(O)c3ccccc3oc2=O)c2c(O)c3ccccc3oc2=O)c1 showed an IC50 of 75.9 µM. O=c1c(C(c2ccc([N+](=O)[O-])cc2)c2c(O)oc3ccccc3c2=O)c(O)oc2ccccc12 was tested, and the IC50 was 70.8 µM. In the case of O=c1oc2ccccc2c(O)c1Cc1c(O)c2ccccc2oc1=O [DICUMAROL], the IC50 is reported as 15.1 µM.

Reference: ChEMBL document CHEMBL1144858, “3D-QSAR CoMFA studies on bis-coumarine analogues as urease inhibitors: a strategic design in anti-urease agents” (Bioorg Med Chem, 2008)
